Assay results as given in a compilation of properties of binary mixtures (doi:10.1016/j.molliq.2016.11.066).

Experiment: xn = mol fraction of the nth substance listed
Details: 101 kPa

COCCO + CCCC[n+]1ccn(C)c1.F[P-](F)(F)(F)(F)F
x2 = 0
Details | speed of sound [m/s]
298.15 K | 1342.1
303.15 K | 1324.7
308.15 K | 1307.4
313.15 K | 1290.1
318.15 K | 1272.7
323.15 K | 1255.4

CCCC[n+]1ccn(C)c1.F[P-](F)(F)(F)(F)F + COCCO
speed of sound [m/s]
Details | x1 = 0.0966 | x1 = 0.1943 | x1 = 0.2887 | x1 = 0.3979 | x1 = 0.4792 | x1 = 0.5943 | x1 = 0.6753 | x1 = 0.8101 | x1 = 0.8849 | x1 = 1
298.15 K | 1365.5 | 1384.8 | – | 1407.6 | 1414.1 | – | 1427.3 | 1435.2 | – | 1443.8
303.15 K | 1349.4 | 1369.8 | 1383.3 | – | 1401.4 | 1409.8 | 1414.9 | 1422.8 | – | 1431.7
308.15 K | 1333.3 | 1354.5 | 1369 | – | 1388.8 | 1397.5 | – | 1411 | 1414.9 | 1419.8
313.15 K | 1317.6 | 1339.6 | 1355.1 | 1368.2 | 1376 | 1385.6 | – | 1399.3 | 1403.1 | 1408.2
318.15 K | 1301.5 | 1324.7 | 1341.4 | – | 1363.7 | 1373.6 | – | 1388 | 1391.8 | –
323.15 K | 1285.5 | 1310.1 | 1327.8 | 1343 | 1352.2 | 1362.1 | 1368.3 | 1377.2 | – | 1385.6
